Like-named read-outs stand apart in the source and are kept apart here.
How the values were obtained:
tumor tissue homogenates = assay type: biochemical
Method in brief: (§1)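 Protease-driven activation measured in acidized (pH 6.0) tissue homogenates, 100 μg. Incubation at 37°C with compound at 1 mg/ml.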

[1] = system: Human fibrosarcoma HT-1080 tumor tissue homogenate; assay type: biochemical; settings: for Activation Efficiencies (%): Human fibrosarcoma HT-1080 tumor tissue homogenate (30 μg/ml), 1 mg/ml compound
Method in brief: as §1

Human heart = assay type: biochemical; settings: for Activation Efficiencies (%): Human heart homogenate, 1 mg/ml compound; for Activation ratio (%) in homogenates from different tumor tissues: Human heart, 1 mg/ml
[2] = system: Human prostate cancer PC-3 cells / Panc-1 cells; assay: Tumor treatment in nude mice (PC-3 cells purchased, Panc-1 cells injected; Examples 22, 32, 42); assay type: in vivo; settings: for Size of tumor (mm^3) Day 10 / inhibitory rate on tumor Day 10 / Size of tumor (mm^3) Day 24 / inhibitory rate on tumor Day 24: nude mice, IV once weekly for four weeks, Paclitaxel 8 mg/kg; for Inhibition on tumor growth, in words: compared with parent drug group (same molar concentration) and control group
Experimental: (§2) 1) Human prostate cancer PC-3 cells were purchased from American type culture collection (ATCC) and identified according the specification provided by ATCC. Cells were cultivated in DMEM culture solution containing 10% fetal bovine serum at 37° C. and 5% CO2. The cells were passaged for every three days and cells within the 15th passage were used.
2) Production of tumor. 5×10^6Panc-1 cells were subcutaneously injected to the back of the nude mice. Mice were randomly grouped after the tumor reached at least 100 mm^3. Then treatment began and the day on which the treatment began was day 1.
The control group was administered by physiological saline. Drugs were administered once weekly for four weeks.
According to the clinical application of B1, B2, B3 and B4, drugs were intravenously injected (IV). […] The control group was administered by physiological saline. Drugs were administered once weekly for four weeks.

[3] = Solubility / formulation test in solvent 1 and solvent 2; assay type: physicochemical; settings: for Concentration achieved, completely dissolved in both solvent 1 and solvent 2: solvent 1 injectable water
Experimental: In Table 11, AAN, AANL and AANK indicate the linkage formed by small peptides in the compounds, A is Ala, N is Asn, L is Leu and K is Lys. […] The dissolution concentration is 10 mg/ml.
B1, B2, B3 and B4 and various control compounds were dried under vacuum, sterilized via gas sterilization, and separately packing in a sterile room. Before animal test, B1, B2, B3 and B4 were dissolved by solvent 1 (injectable water) or solvent 2 (30% alcohol, 70% injectable water) and diluted by injectable water to the desired concentration in sterile room. […] Change in solubility may greatly affect the formulation scheme of a drug.
D1, D2, D3, D4 and various control compounds were dried under vacuum, sterilized via gas sterilization, and separately packing in a sterile room. […] Change in solubility may greatly affect the formulation scheme of a drug.

4T1 cells = assay: BALB/C mice model for tumor metastasis (4T1, lung metastases); assay type: in vivo; settings: for Inhibitory effect on tumor metastasis, in words: compared with parent drug group and control group
Experimental: as §2, with “4T1” for “Human prostate cancer PC-3”
2) Production of tumor metastasis. 10^6 […] were subcutaneously injected to the back of the BALB/C mice. Mice were randomly grouped after the tumor grew to about 1.5 cm. The subcutaneous tumor was removed by surgery and drug treatment began. Mice were killed after anesthesia on day 27. The whole lung was taken out and put into Bouin's solution for staining. The number of the tumor metastasized to lung was counted with anatomical microscope.
(§3) The control group was administered by physiological saline. Drugs were administered once for every three days for 4 times.
as §3
According to the clinical application of B1, B2, B3 and B4, drugs were intravenously injected (IV). […] The control group was administered by physiological saline. Drugs were administered once for every three days for 4 times.
According to the clinical application of D1, D2, D3 and D4, drugs were intravenously injected (IV). […] The control group was administered by physiological saline. Drugs were administered once for every three days for 4 times.

BALB/C mice = assay: Maximum tolerated dose (MTD) / acute toxicity by single intravenous injection; settings: for Behaviors and death observed: BALB/C mice receiving 90 mg/kg injection; for MTD (maximum tolerated dose): intravenous injection, one time
[4] = Table 28, BALB/C mice, 4T1, lung metastases day 27, IV every three days for 4 times, A1-A4 12 mg/kg, Paclitaxel 4 mg/kg
[5] = single intravenous injection, 125 mg/kg, 10 BALB/C mice per group
[6] = single intravenous injection, 150 mg/kg, 10 BALB/C mice per group
[7] = single intravenous injection, 175 mg/kg, 10 BALB/C mice per group
[8] = single intravenous injection, 200 mg/kg, 10 BALB/C mice per group
[9] = day 27, IV once every three days for 4 times, E1-E4 15 mg/kg, mitomycin 1 mg/kg
[10] = lung metastases counted on day 27, IV once every three days for 4 times, E1-E4 15 mg/kg, mitomycin 1 mg/kg
[11] = 4T1, BALB/C mice, lung, day 27, IV every three days for 4 times, S1′-S4′ 12 mg/kg, Paclitaxel 4 mg/kg

4-N—(N—(N—(N-(6-maleimido caproyl)-L-alanyl)-L-alanyl)-L-asparaginyl)-amino benzyl alcohol-MMAE-carbamate [Compound S6]
Activation efficiency by tumor tissue, in words (tumor tissue homogenates): relatively low activation efficiency | Activation Efficiencies (%) [1]: 24.3% | Activation Efficiencies (%) (Human heart): 5.3%

COCCOCCOCCOCCOCCOCC(=O)NCCCC[C@H](NC(=O)COCCOCCOCCOCCOCCOC)C(=O)N[C@H](C)C(=O)N[C@H](C)C(=O)N[C@H](CC(N)=O)C(=O)Nc1ccc(COC(=O)OC(C(=O)OC2C[C@@]3(O)[C@@H](OC(=O)c4ccccc4)[C@H]4[C@](C)(C(=O)[C@H](OC(C)=O)C(=C2C)C3(C)C)[C@@H](O)CC2OC[C@]24OC(C)=O)[C@@H](NC(=O)c2ccccc2)c2ccccc2)cc1 (stereo partly shown) [Compound A2]
Size of tumor (mm^3) Day 10 ([2]; Table 26, A1-A4 24 mg/kg): 55.19 ± 56.2 mm^3 | inhibitory rate on tumor Day 10 ([2]; Table 26, A1-A4 24 mg/kg): 81.3% | Size of tumor (mm^3) Day 24 ([2]; Table 26, A1-A4 24 mg/kg): 44.43 ± 47.9 mm^3 | inhibitory rate on tumor Day 24 ([2]; Table 26, A1-A4 24 mg/kg): 88.3% | Inhibition on tumor growth, in words [2]: greatly improved | solubility in Solvent 1 ([3]; solvent 1 (injectable water), Table 22, Paclitaxel series): soluble | Concentration achieved, completely dissolved in both solvent 1 and solvent 2 ([3]; solvent 2 45% alcohol, 55% injectable water): 10000 µg/mL | solubility in Solvent 2 ([3]; solvent 2 (45% alcohol, 55% injectable water), Table 22, Paclitaxel series): soluble | Solubility in water, in words ([3]; water): can directly dissolve in water | Inhibitory rate on metastasis (4T1 cells; [4]): 93.9% | Number of metastasized tumor (4T1 cells; [4]): 9 ± 5 | Inhibitory effect on tumor metastasis, in words (4T1 cells): greatly improved | Activation ratio (%) in homogenates from different tumor tissues (Human heart; acidized homogenate pH6.0, Paclitaxel release by HPLC): none | Behaviors and death observed (BALB/C mice): no pilo-erection, hair tousle and lackluster, lethargy, stoop, irritable reaction and death | MTD (maximum tolerated dose) (BALB/C mice; BALB/C mice): about 90 mg/kg | Mortality rate (%) (BALB/C mice; [5]): 10% | Number of dead animal (BALB/C mice; [5]): 2 | Mortality rate (%) (BALB/C mice; [6]): 0% | Number of dead animal (BALB/C mice; [6]): 0 | Mortality rate (%) (BALB/C mice; [7]): 0% | Number of dead animal (BALB/C mice; [7]): 0 | Mortality rate (%) (BALB/C mice; [8]): 0% | Number of dead animal (BALB/C mice; [8]): 0

COCCOCCOCCOCCOCCOCC(=O)N[C@H](C)C(=O)N[C@H](C)C(=O)N[C@H](CC(N)=O)C(=O)Nc1ccc(COC(=O)N2[C@H]3[C@@H]2CN2C4=C(C(=O)C(N)=C(C)C4=O)[C@H](COC(N)=O)[C@]32OC)cc1 [Compound E2]
Activation ratio (%) in homogenates from different tumor tissues ([1]; Human fibrosarcoma HT-1080, 37° C., 1 mg/ml, 100 μg acidized homogenate): 85.7% | Inhibitory effect on tumor metastasis, in words (4T1 cells): greatly improved | Inhibitory rate on metastasis (4T1 cells; [9]): 94.1% | Number of metastasized tumor (4T1 cells; [10]): 8 ± 7 | Mortality rate (%) (BALB/C mice; 50 mg/kg single IV injection, 10 BALB/C mice): 0% | Number of dead animal (BALB/C mice; 50 mg/kg single IV injection, 10 BALB/C mice, observed 17 days): 0 | Mortality rate (%) (BALB/C mice; 70 mg/kg single IV injection, 10 BALB/C mice): 0% | Number of dead animal (BALB/C mice; 70 mg/kg single IV injection, 10 BALB/C mice, observed 17 days): 0 | Mortality rate (%) (BALB/C mice; 90 mg/kg single IV injection, 10 BALB/C mice): 0% | Number of dead animal (BALB/C mice; 90 mg/kg single IV injection, 10 BALB/C mice, observed 17 days): 0 | Mortality rate (%) (BALB/C mice; 110 mg/kg single IV injection, 10 BALB/C mice): 10% | Number of dead animal (BALB/C mice; 110 mg/kg single IV injection, 10 BALB/C mice, observed 17 days): 1 | Behaviors and death observed (BALB/C mice): no pilo-erection, hair tousle and lackluster, lethargy, stoop, irritable reaction and death

COc1cccc2c1C(=O)c1c(O)c3c(c(O)c1C2=O)C[C@@](O)(C(C)=O)C[C@@H]3O[C@H]1C[C@H](NC(=O)OCc2ccc(NC(=O)[C@H](CC(N)=O)NC(=O)[C@H](C)NC(=O)[C@H](C)NC(=O)CCCCCN3C(=O)C=CC3=O)cc2)[C@H](O)[C@H](C)O1 [Compound S5, 4-N—(N—(N—(N-(6-maleimidocaproyl)-L-alanyl)-L-alanyl)-L-asparaginyl)-amino benzyl alcohol-daunorubicin-carbamate]
Activation Efficiencies (%) [1]: 98.4% | Activation Efficiencies (%) (Human heart): 3.5%

COCCOCCOCCOCCOCCOCC(=O)N[C@H](C)C(=O)N[C@H](C)C(=O)N[C@H](CC(N)=O)C(=O)Nc1ccc(COC(=O)OC(C(=O)OC2C[C@@]3(O)[C@@H](OC(=O)c4ccccc4)[C@H]4[C@](C)(C(=O)[C@H](OC(C)=O)C(=C2C)C3(C)C)[C@@H](O)CC2OC[C@]24OC(C)=O)[C@@H](NC(=O)c2ccccc2)c2ccccc2)cc1 (stereo partly shown) [S2′]
Inhibition on tumor growth, in words [2]: greatly improved | Size of tumor (mm^3) Day 10 ([2]; S1′-S4′ 24 mg/kg): 60.17 ± 30.26 mm^3 | inhibitory rate on tumor Day 10 ([2]; S1′-S4′ 24 mg/kg): 36.4% | Size of tumor (mm^3) Day 24 ([2]; S1′-S4′ 24 mg/kg): 42.39 ± 62.24 mm^3 | inhibitory rate on tumor Day 24 ([2]; S1′-S4′ 24 mg/kg): 83.01% | solubility in Solvent 1 ([3]; Solvent 1 injectable water, dissolution concentration 10 mg/ml): soluble | solubility in Solvent 2 ([3]; Solvent 2: 50% injectable water, 45%-49% propanediol, 1%-5% Tween80, dissolution concentration 10 mg/ml): soluble | Concentration achieved, completely dissolved in both solvent 1 and solvent 2 ([3]; solvent 2 50% injectable water, 42%-49% propanediol, 1%-8% Tween80): 10000 µg/mL | Inhibitory rate on metastasis (4T1 cells; [11]): 94.1% | Number of metastasized tumor (4T1 cells; [11]): 8 ± 7 | Inhibitory effect on tumor metastasis, in words (4T1 cells): greatly improved | Activation ratio (%) in homogenates from different tumor tissues (Human heart; 37°): none | Behaviors and death observed (BALB/C mice): no pilo-erection, hair tousle and lackluster, lethargy, stoop, irritable reaction and death | MTD (maximum tolerated dose) (BALB/C mice; BALB/C mice): about 90 mg/kg | Mortality rate (%) (BALB/C mice; BALB/C mice, single iv, 125 mg/kg): 0% | Number of dead animal (BALB/C mice; BALB/C mice, single iv, 125 mg/kg, 10 animals): 0 | Mortality rate (%) (BALB/C mice; BALB/C mice, single iv, 150 mg/kg): 0% | Number of dead animal (BALB/C mice; BALB/C mice, single iv, 150 mg/kg, 10 animals): 0 | Mortality rate (%) (BALB/C mice; BALB/C mice, single iv, 175 mg/kg): 0% | Number of dead animal (BALB/C mice; BALB/C mice, single iv, 175 mg/kg, 10 animals): 0 | Mortality rate (%) (BALB/C mice; BALB/C mice, single iv, 200 mg/kg): 10% | Number of dead animal (BALB/C mice; BALB/C mice, single iv, 200 mg/kg, 10 animals): 1

CO[C@@]12[C@H](COC(N)=O)C3=C(C(=O)C(C)=C(N)C3=O)N1C[C@@H]1N[C@@H]12 [mitomycin, reference compound]
Inhibitory rate on metastasis (4T1 cells; [9]): 5.9% | Number of metastasized tumor (4T1 cells; [10]): 128 ± 25 | Mortality rate (%) (BALB/C mice; 6 mg/kg single IV injection, 10 BALB/C mice): 0% | Number of dead animal (BALB/C mice; 6 mg/kg single IV injection, 10 BALB/C mice, observed 17 days): 0 | Mortality rate (%) (BALB/C mice; 7 mg/kg single IV injection, 10 BALB/C mice): 10% | Number of dead animal (BALB/C mice; 7 mg/kg single IV injection, 10 BALB/C mice, observed 17 days): 1 | Mortality rate (%) (BALB/C mice; 8 mg/kg single IV injection, 10 BALB/C mice): 40% | Number of dead animal (BALB/C mice; 8 mg/kg single IV injection, 10 BALB/C mice, observed 17 days): 4 | Mortality rate (%) (BALB/C mice; 9 mg/kg single IV injection, 10 BALB/C mice): 90% | Number of dead animal (BALB/C mice; 9 mg/kg single IV injection, 10 BALB/C mice, observed 17 days): 9

Reference: patent US10682371B2, “Small molecule conjugates specifically activated in tumor microenvironment for targeting and use thereof” (priority 2014, dated 2020)
